The test system of assay [1] is CCK-8 induced contraction of guinea pig gall bladder. Kind of assay: Anti-CCK activity on gall bladder strips in vitro. Particulars: CCK-8 10 ng/ml. The gist of the method: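 CCK-8 at 10 ng/ml drove isometric contraction of guinea pig gall bladder strips held at 32 °C in oxygenated Krebs (O2/CO2 95:5). Antagonism was measured at graded compound concentrations and reported as ED50, in μg/ml, for 50% inhibition of the contraction.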

For assay [2], the system named is morphine analgesia. In words: Increase in analgesia of morphine, Tail Flick Test (Experiment 1). In kind it is in vivo, rats. As to conditions: for percentage variation of latency of pain sensation / M (10-90) ± SE, mean percentage variation of latency: compound 10 mg/kg i.p. + morphine 2 mg/kg; for M (10-90) ± SE, mean percentage variation of latency: mean 10-90 min; for Power ratio with respect to morphine alone: rat, in vivo. Put shortly: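 Tail-flick latency to 75 °C radiant heat, capped at 8 s, measured in male non-fasted rats weighing 150-200 g. Percentage change per animal derived from pre-treatment baseline versus post-drug readings at 10-90 min (10, 20, 30, 45, 60, 90 min).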

Assay [3] deals with endogenous opiates analgesia. In words: Analgesic activity of endogenous opiates released by transcutaneous shock, Tail Flick Test (Experiment 3). The class given is in vivo, rats. Here is the method: Experiment No. 3: Influence of several of the compounds of the invention on the analgesic activities of endogenous opiates released by transcutaneous shock in rats and measured by the Tail Flick Test
The method is that described by Lewis et al. J. Neurosc. 1, 358 […]. Male rats which have not fasted and have a weight of about 200 g are used.
The animals are stressed by the application of a 60 Hz-2.5 mA current to the front leg in pulses of a duration of 1 second every 5 seconds for 20 minutes.
This stress regime induces the release of endogenous opiates.

The subject of assay [4] is enkephalinamide (DALA) analgesia. Kind of assay: Potentiation of DALA (enkephalinamide) analgesia, i.c.v., Tail Flick Test (Experiment 4). In kind it is in vivo, rats. The arrangement: scale not given here. From the text:
Experiment No. 4: Potentiation of the analgesic activities of enkephalins induced by some of the compounds of the invention. […]

The mark [5] stands for this setting: compound 1 mg/kg iv + stress, 5'.
[6] abbreviates: compound 1 mg/kg iv + stress, 10'.
The mark [7] stands for this setting: compound 1 mg/kg iv + stress, 15'.
Where [8] appears, read: compound 3 mg/kg iv + stress, 5'.
[9] abbreviates: compound 3 mg/kg iv + stress, 10'.
The mark [10] stands for this setting: compound 3 mg/kg iv + stress, 15'.

For `CC(C)c1ccc(C(=O)NC(CCC(=O)N2CCCCC2)C(=O)O)cc1` (racemic) [Compound D-17], the “ED50 (concentration antagonising 50% of contracting effect of CCK-8)” value in assay [1] is > 300 µg/mL. The “percentage variation of latency of pain sensation” value was determined as 62.3 ± 15% in assay [2] (10'); 92.9 ± 7% in assay [2] (20'); 100 ± 0% in assay [2] (30'); 100 ± 0% in assay [2] (45'); 100 ± 0% in assay [2] (60'); 100 ± 0% in assay [2] (90'). Further, in assay [2], the “M (10-90) ± SE, mean percentage variation of latency” value stood at 92.5 ± 15%. Besides, the “Power ratio with respect to morphine alone” value (shortened to “Power ratio”) in assay [2] stood at 3.10. For the same molecule, the “average latency, Tail Flick” value in assay [3] (setting [5]) was 6.18 ± 0.65 s; in assay [3] (setting [6]), 7.02 ± 0.76 s; in assay [3] (setting [7]) it was 5.31 ± 0.55 s; in assay [3] (setting [8]) it was 9.08 ± 0.55 s; in assay [3] (setting [9]), 9.08 ± 0.80 s; in assay [3] (setting [10]), 6.08 ± 0.98 s.

`CCCN(CCC)C(=O)C(CCC(=O)O)NC(=O)c1ccc(C(F)(F)F)cc1` (stereo not shown) [Compound C-39]: the “percentage variation of latency of pain sensation” value is given as 44.9 ± 15% in assay [2] (10'); 100.0 ± 0% in assay [2] (20'); 93.3 ± 7% in assay [2] (30'); 94.4 ± 6% in assay [2] (45'); 85.6 ± 7% in assay [2] (60'); 81.8 ± 10% in assay [2] (90'). Further, the “M (10-90) ± SE, mean percentage variation of latency” value in assay [2] was 83.3 ± 20%. Besides, in assay [2], the “Power ratio” value was 2.79. For the same molecule, the “average latency, Tail Flick” value stood at 6.3 ± 0.4 s in assay [3] (setting [5]); 5.8 ± 0.38 s in assay [3] (setting [6]); 4.04 ± 0.36 s in assay [3] (setting [7]); 7.54 ± 0.65 s in assay [3] (setting [8]); 5.98 ± 0.41 s in assay [3] (setting [9]); 5.08 ± 0.6 s in assay [3] (setting [10]).

With `O=C(NC(CCC(=O)N1CCCCC1)C(=O)O)c1ccc(Br)cc1` [Compound D-7], the “ED50 (concentration antagonising 50% of contracting effect of CCK-8)” value in assay [1] was > 200 µg/mL. Also, the “percentage variation of latency of pain sensation” value in assay [2] (10') worked out at 31.8 ± 19.0%; in assay [2] (20'), 48.0 ± 16.0%; in assay [2] (30'), 70.5 ± 15.0%; in assay [2] (45') it was 73.7 ± 13.0%; in assay [2] (60'), 88.6%; in assay [2] (90') it was 32.4 ± 19.0%. In addition, the “M (10-90) ± SE, mean percentage variation of latency” value in assay [2] is reported as 57.5 ± 23.5%. Also, the “Power ratio” value in assay [2] amounted to 1.93.

Turning to `O=C(NC(CCC(=O)N1CCCCC1)C(=O)O)c1ccc(Cl)c(Cl)c1` [Compound D-9], the “ED50 (concentration antagonising 50% of contracting effect of CCK-8)” value in assay [1] was > 200 µg/mL. Besides, the “percentage variation of latency of pain sensation” value was found to be 88.5 ± 19.0% in assay [2] (10'); 74.0 ± 16.0% in assay [2] (20'); 70.9 ± 16.0% in assay [2] (30'); 73.0 ± 15.0% in assay [2] (45'); 84.5 ± 12.0% in assay [2] (60'); 79.9 ± 12.0% in assay [2] (90'). In addition, the “M (10-90) ± SE, mean percentage variation of latency” value in assay [2] is reported as 75.1 ± 6.0%. In assay [2], the “Power ratio” value is given as 2.52.

As to `N#Cc1ccc(C(=O)NC(CCC(=O)N2CCCCC2)C(=O)O)cc1` [Compound D-10], in assay [1], the “ED50 (concentration antagonising 50% of contracting effect of CCK-8)” value is > 200 µg/mL. Moreover, the “percentage variation of latency of pain sensation” value in assay [2] (10') is reported as 41.0 ± 8.0%; in assay [2] (20') it was 58.6 ± 17.0%; in assay [2] (30') it was 59.8 ± 17.0%; in assay [2] (45'), 62.7 ± 15.0%; in assay [2] (60'), 47.0%; in assay [2] (90') it was 35.4 ± 11.0%. Also, the “M (10-90) ± SE, mean percentage variation of latency” value in assay [2] amounted to 50.8 ± 11.2%. Further, the “Power ratio” value in assay [2] is reported as 1.70.

Consider `Cc1ccc(C(=O)NC(CCC(=O)N(C)C)C(=O)O)cc1C` [Compound D-12], for which the “ED50 (concentration antagonising 50% of contracting effect of CCK-8)” value in assay [1] was > 300 µg/mL. The “percentage variation of latency of pain sensation” value amounted to 45.4 ± 23% in assay [2] (10'); 63.9 ± 15% in assay [2] (20'); 84. ± 16% in assay [2] (30'); 100 ± 0% in assay [2] (45'); 78.5 ± 15% in assay [2] (60'); 56.1 ± 22% in assay [2] (90'). Besides, in assay [2], the “M (10-90) ± SE, mean percentage variation of latency” value came out at 71.3 ± 20%. For the same molecule, the “Power ratio” value in assay [2] is reported as 2.39.

Consider `CCCN(CCC)C(=O)CCC(NC(=O)c1ccc(C)c(C)c1)C(=O)O` [Compound D-15], for which, in assay [1], the “ED50 (concentration antagonising 50% of contracting effect of CCK-8)” value turned out to be 245.0 µg/mL. For the same molecule, the “percentage variation of latency of pain sensation” value came to 43.5 ± 16% in assay [2] (10'); 48.7 ± 18% in assay [2] (20'); 72.6% in assay [2] (30'); 60.1 ± 23% in assay [2] (45'); 59.2 ± 18% in assay [2] (60'); 43.5 ± 24% in assay [2] (90'). Besides, in assay [2], the “M (10-90) ± SE, mean percentage variation of latency” value stood at 54.6 ± 11%. The “Power ratio” value in assay [2] was 1.83.

With `CSCC[C@H](NC(=O)[C@H](Cc1ccccc1)NC(=O)CNC(=O)[C@@H](C)NC(=O)[C@@H](N)Cc1ccc(O)cc1)C(N)=O` [DALA, D-ala-methionine-enkephalinamide, reference compound], the “analgesic activity, Tail Flick” value amounted to 21.9 in assay [4] (DALA 10 μg/kg ICV alone, 10'); 25.9 in assay [4] (DALA 10 μg/kg ICV alone, 20'); 26.2 in assay [4] (DALA 10 μg/kg ICV alone, 30'); 26.0 in assay [4] (DALA 10 μg/kg ICV alone, 45'); 7.3 in assay [4] (DALA 10 μg/kg ICV alone, 60'); 5.0 in assay [4] (DALA 10 μg/kg ICV alone, 90'). In addition, the “analgesic activity, Tail Flick” value is recorded as 4.1 in assay [4] (DALA 10 mg/kg (ICV) as printed, alone, 10'); 6.24 in assay [4] (DALA 10 mg/kg (ICV) as printed, alone, 20'); 9.19 in assay [4] (DALA 10 mg/kg (ICV) as printed, alone, 30'); 8.29 in assay [4] (DALA 10 mg/kg (ICV) as printed, alone, 45'); 6.20 in assay [4] (DALA 10 mg/kg (ICV) as printed, alone, 60'); 10.56 in assay [4] (DALA 10 mg/kg (ICV) as printed, alone, 90'). The “MEAN analgesic activity, Tail Flick” value in assay [4] (DALA 10 μg/kg ICV alone) amounted to 18.7; in assay [4] (DALA 10 mg/kg (ICV) as printed, alone), 7.51.
